The source of these data is ChEMBL document CHEMBL1145560, “Use of receptor chimeras to identify small molecules with high affinity for the dynorphin A binding domain of the kappa opioid receptor” (Bioorg Med Chem Lett, 2008).

Test [1] addresses T1, Kappa-type opioid receptor (Homo sapiens, UniProt P41145). Briefly: Agonist activity at human kappa opioid receptor transfected in CHO cells by [35S]GTP-gamma-S binding assay. The test is classed as functional, cell-based.
In test [2] the target is Delta-type opioid receptor (Homo sapiens, UniProt P41143). Briefly: Displacement of [3H]diprenorphine from human delta opioid receptor expressed in CHO-K1 cells. The test is classed as cell-based. (Displacement assays read how much labelled ligand stays bound in the presence of the test substance.)
Another test concerns the target Mu-type opioid receptor (Homo sapiens, UniProt P35372). Briefly: Displacement of [3H]diprenorphine from human mu opioid receptor expressed in CHO-K1 cells. Format: cell-based.
For test [3], the target named is T1, Kappa-type opioid receptor. Briefly: Displacement of [3H]diprenorphine from human kappa opioid receptor expressed in CHO-K1 cells. Format: cell-based.
Test [4] is described as follows: Displacement of [3H]diprenorphine from human kappa/mu opioid chimera 3 receptor.
Test [5] in a line: Displacement of [3H]diprenorphine from human kappa/mu opioid chimera 4 receptor.

T1 sequence (P41145 whole entry): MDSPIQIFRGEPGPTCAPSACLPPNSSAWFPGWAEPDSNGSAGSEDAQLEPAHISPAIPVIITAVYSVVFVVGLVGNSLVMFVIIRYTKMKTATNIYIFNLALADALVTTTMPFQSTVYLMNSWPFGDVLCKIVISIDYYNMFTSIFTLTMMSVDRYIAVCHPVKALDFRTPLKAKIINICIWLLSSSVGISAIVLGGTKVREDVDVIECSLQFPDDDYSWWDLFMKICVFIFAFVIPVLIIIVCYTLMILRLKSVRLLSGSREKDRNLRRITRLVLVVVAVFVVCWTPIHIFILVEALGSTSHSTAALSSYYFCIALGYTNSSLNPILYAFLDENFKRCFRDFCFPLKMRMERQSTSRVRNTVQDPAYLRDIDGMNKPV
Delta-type opioid receptor, sequence (P41143 whole entry): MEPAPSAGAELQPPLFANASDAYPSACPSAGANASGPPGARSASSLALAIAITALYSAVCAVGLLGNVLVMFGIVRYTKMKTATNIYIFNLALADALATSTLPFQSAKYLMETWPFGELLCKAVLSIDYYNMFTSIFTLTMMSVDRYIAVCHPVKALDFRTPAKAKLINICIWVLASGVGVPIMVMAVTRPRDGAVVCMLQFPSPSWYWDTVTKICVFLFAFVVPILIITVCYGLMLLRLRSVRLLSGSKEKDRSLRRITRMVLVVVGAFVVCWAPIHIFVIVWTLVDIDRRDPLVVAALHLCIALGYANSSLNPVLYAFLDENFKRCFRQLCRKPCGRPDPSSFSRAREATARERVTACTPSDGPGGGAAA
Mu-type opioid receptor, sequence (P35372 whole entry): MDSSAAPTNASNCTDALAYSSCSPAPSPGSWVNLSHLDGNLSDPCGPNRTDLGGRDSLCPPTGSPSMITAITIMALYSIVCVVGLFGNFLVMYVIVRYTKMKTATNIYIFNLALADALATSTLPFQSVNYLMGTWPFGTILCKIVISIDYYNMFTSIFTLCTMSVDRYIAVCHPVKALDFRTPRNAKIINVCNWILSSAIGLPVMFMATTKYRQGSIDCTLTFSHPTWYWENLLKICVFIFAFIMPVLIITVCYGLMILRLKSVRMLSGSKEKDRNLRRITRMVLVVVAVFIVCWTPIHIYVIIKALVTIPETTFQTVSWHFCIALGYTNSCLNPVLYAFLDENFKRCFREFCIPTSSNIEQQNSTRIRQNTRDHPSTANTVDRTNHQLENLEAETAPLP

As a reminder, the EC50 is the concentration needed to bring the measured effect to its halfway point. Low values mean greater potency, high ones weaker potency. One may read the Ki as a dissociation constant, usually derived from enzyme kinetics or from competition with a known ligand. For the compound `COc1cc(CC(=O)N(C)[C@H](CN2CC[C@H](O)C2)c2ccccc2)c(S(=O)(=O)N2CCN(C)CC2)cc1OC`, the EC50 in test [1] is 0.71 nM. The figures for the Ki (in test [2]; at Mu-type opioid receptor; in test [3]) were 4.4 nM, 27 nM and 3.8 nM, respectively.

With `COc1cc(CC(=O)N(C)[C@H](CN2CCCC2)c2ccccc2)c(S(=O)(=O)N(C)C)cc1OC`, the inhibitory constant (Ki) was 3.2 nM in test [4]; 56 nM in test [2]; 42 nM on Mu-type opioid receptor; 0.5 nM in test [3]; 2.5 nM in test [5]. The compound also had an EC50 in test [1] of 0.26 nM.

With `COc1cc(CC(=O)N(C)[C@H](CN2CC[C@H](O)C2)c2ccccc2)c(S(=O)(=O)N(C)C)cc1OC`, the inhibitory constant (Ki) is 6.4 nM in test [4]; 9.3 nM in test [2]; 25 nM on Mu-type opioid receptor; 1.6 nM in test [3]; 2.8 nM in test [5]. Further, the EC50 in test [1] turned out to be 0.24 nM.

For `CN(C(=O)Cc1cc2c(cc1S(=O)(=O)N(C)C)OCO2)[C@H](CN1CC[C@H](O)C1)c1ccccc1`, the Ki in test [4] was 4.5 nM; in test [2], 6.2 nM; on Mu-type opioid receptor it was 34 nM; in test [3], 0.54 nM; in test [5] it was 0.5 nM. A half-maximal response in test [1] (EC50) required 0.11 nM.

Take `CN(C(=O)Cc1cc2c(cc1S(=O)(=O)N(C)Cc1ccccc1)OCO2)[C@H](CN1CCCC1)c1ccccc1`: the Ki in test [4] worked out at 5.5 nM; in test [2], 3.4 nM; on Mu-type opioid receptor, 6.5 nM; in test [3] it was 0.19 nM; in test [5], 1.7 nM. In test [1], this compound gave an EC50 of 0.12 nM.

Take `COc1cc(CC(=O)N(C)[C@H](CN2CC[C@H](O)C2)c2ccccc2)c(S(=O)(=O)N2CCCC2)cc1OC`: the Ki in test [4] amounted to 38 nM; in test [2] it was 0.85 nM; at Mu-type opioid receptor, 5.9 nM; in test [3], 1.1 nM; in test [5] it was 8.3 nM. For the same compound, the EC50 in test [1] amounted to 0.12 nM.

Regarding `COc1cc(CC(=O)N(C)[C@H](CN2CCCC2)c2ccccc2)c(S(=O)(=O)N(C)Cc2ccccc2)cc1OC`, the inhibition constant Ki in test [4] was found to be 3.3 nM; in test [2], 1.5 nM; at Mu-type opioid receptor, 21 nM; in test [3] it was 0.68 nM; in test [5], 4.8 nM. The EC50 in test [1] is 0.54 nM.

Regarding `CN(C(=O)Cc1cc2c(cc1S(=O)(=O)N(C)C)OCO2)[C@H](CN1CCCC1)c1ccccc1`, the Ki in test [4] stood at 5.2 nM; in test [2], 110 nM; on Mu-type opioid receptor, 47 nM; in test [3], 0.22 nM; in test [5] it was 0.71 nM. Moreover, a half-maximal effect in test [1] (EC50) was put at 0.1 nM.

`COc1cc(CC(=O)N(C)[C@H](CN2CCCC2)c2ccccc2)c(S(=O)(=O)N2CCOCC2)cc1OC`: the Ki came to 1.3 nM in test [4]; 9.4 nM in test [2]; 15 nM at Mu-type opioid receptor; 0.55 nM in test [3]; 2.2 nM in test [5]. In addition, the concentration giving a half-maximal response (EC50) in test [1] amounted to 0.17 nM.

`COc1cc(CC(=O)N(C)[C@H](CN2CCCC2)c2ccccc2)c(S(=O)(=O)N2CCCC2)cc1OC`: the Ki is 1.5 nM in test [4]; 5.4 nM in test [2]; 14 nM at Mu-type opioid receptor; 0.31 nM in test [3]; 1.2 nM in test [5]. The compound further gave an EC50 in test [1] of 0.11 nM.

Take `COc1cc(CC(=O)N(C)[C@H](CN2CC[C@H](O)C2)c2ccccc2)c(S(=O)(=O)N2CCOCC2)cc1OC`: in test [1], the half-maximal effective concentration (EC50) worked out at 0.34 nM. Further, the Ki in test [2] amounted to 1.8 nM; at Mu-type opioid receptor, 9 nM; in test [3] it was 1.4 nM.

Regarding `COc1cc(CC(=O)N(C)[C@H](CN2CCCC2)c2ccccc2)c(S(=O)(=O)N2CCN(C)CC2)cc1OC`, the inhibition constant Ki in test [4] came to 4.8 nM; in test [2], 23 nM; on Mu-type opioid receptor, 52 nM; in test [5], 6.8 nM. In test [1], this compound had a 50% effective concentration (EC50) of 0.39 nM.

`CC[C@H](C)[C@H](NC(=O)[C@H](CCCNC(=N)N)NC(=O)[C@H](CCCNC(=N)N)NC(=O)[C@H](CC(C)C)NC(=O)[C@H](Cc1ccccc1)NC(=O)CNC(=O)CNC(=O)[C@@H](N)Cc1ccc(O)cc1)C(=O)N[C@@H](CCCNC(=N)N)C(=O)N1CCC[C@H]1C(=O)N[C@@H](CCCCN)C(=O)N[C@@H](CC(C)C)C(=O)N[C@@H](CCCCN)C(=O)N[C@@H](Cc1c[nH]c2ccccc12)C(=O)N[C@@H](CC(=O)O)C(=O)N[C@@H](CC(N)=O)C(=O)N[C@@H](CCC(N)=O)C(=O)O` [DYNORPHIN A (1-17)]: the Ki stood at 0.31 nM in test [4] and 0.18 nM in test [5].
